Source: patent publication US20110319484A1, “NEUROPROTECTIVE COMPOUNDS” (Parque Tecnologico de Ciencias de la Salud, priority 2009, published 2011)
Where a SMILES comes first, the peptide text is derived from it. The star is where a group is joined. Cbz = O=C(OCc1ccccc1)*; CH2F = FC*

Assays:
[1] = test system: human neuroblastoma SK-N-MC cells; assay: Inhibition of ROS production induced by xanthine/xanthine oxidase (H2DCFDA probe, LDH-normalized); assay type: cell-based; conditions: XXO 10 μM-100 mU/ml, AA 100 μM, positive control
Procedure: The assay was performed on human neuroblastoma SK-N-MC cells in culture from the American Type Culture Collection (ATCC) (HTB-10), in all cases strict rules of sterility were followed and the manipulation was performed in class II biological safety cabinets following European standard EN 12469. The cells were maintained in Minimum Essential Medium Eagle (MEM) culture medium supplemented with 1 mM sodium pyruvate, 2 mM L-glutamine, 0.1 mM non-essential amino acids, 0.05 mg/ml gentamicin and 10% fetal bovine serum.
The inhibition by the NST0003 compound [(1S,3R,7S,8S,8aR)-1,2,3,7,8,8a-hexahydro-3,7-dimethyl-8-[2-[(2R,4R)-tetrahydro-4-hydroxy-6-oxo-2H-pyran-2-yl]ethyl-1-naphthalenyl propanoate] on the production of reactive oxygen species (ROS) in the SK-N-MC cells, was analyzed. […]
The cells were incubated (at 37° C. and 5% CO2) with these treatments for 3 h, after which time they were washed with HKRB buffer (20 mM HEPES, 103 mM NaCl, 4.77 mM KCl, 0.5 mM CaCl2, 1.2 mM MgCl2, 1.2 mM KH2PO4, 25 mM […], 15 mM glucose; at pH 7.3) after which the 2′,7′-dichlorodihydrofluorescein diacetate (H2DCFDA) probe was added at 30 μM diluted in HKRB buffer and it was incubated for another 2 hours in the same conditions. The reading of the plate was taken in a fluorometer at the conditions of 485 nm for excitation and 538 nm for emission. […]

SK-N-MC cells = assay: Inhibition of camptothecin-induced apoptosis by flow cytometry (propidium iodide, sub-G1); assay type: cell-based, human; conditions: camptothecin 50 μM, 6 h, Z-VAD-fmk 50 μM
Procedure: To that end, the inhibition caused by the NST0005 compound of apoptosis caused by the treatment with camptothecin (Campt) was analyzed. The SK-N-MC cells, not exceeding 15 passages, were seeded on 6-well plates treated for adherent cells with a cell concentration of 8×10^5 cells/well; 2 wells of the plate were seeded for each condition of the assay.
After 24 h of cell incubation at 37° C. and 5% CO2 the cell treatments were performed with 2 ml of total volume for the following conditions: (i), control (culture medium); (ii), camptothecin [50 μM]; (iii) camptothecin [50 μM] and Z-VAD-fmk [50 μM] (Alexis), as positive control of inhibition; and (iv), 50 μM camptothecin with NST0005 at different concentrations [4, 10, 40 and 100 μg/ml].
The cells were incubated (at 37° C. and 5% CO2) with these treatments for 6 h, after which time they were pooled together with their culture medium and centrifuged at 300×g for 5 minutes. The medium was removed, a washing was performed with phosphate buffered saline (PBS) and they were fixed for 2 minutes with 500 μl of 70% ethanol at −20° C. […] After this time, they were analyzed by flow cytometry, comparing the fluorescence of the propidium iodine against the amount of DNA. The percentage of apoptosis was measured on the sub-G1 region of each of the conditions. […]

[2] = test system: caspase 3/7 activation in SK-N-MC cells; assay: Inhibition of camptothecin-induced caspase 3/7 activation (Apo-ONE kit); assay type: cell-based, human; conditions: camptothecin 50 μM, 6 h, Z-VAD-fmk 50 μM
Procedure: To that end, the inhibition caused by (1S,3R,7S,8S,8aR)-1,2,3,7,8,8a-hexahydro-3,7-dimethyl-8-[2-[(2R,4R)-tetrahydro-4-hydroxy-6-oxo-2H-pyran-2-yl]ethyl-1-naphthalenyl 2,2-dimethylpropanoate (NST0005) of apoptosis caused by the treatment with camptothecin (Campt) on the SK-N-MC cells in culture was analyzed following the working conditions specified in section 3.1. Apoptosis can be quantified by measuring effector caspase activation. Caspases (proteins belonging to the cysteine-protease group) mediate the cleavage of a series of proteins triggering the signaling cascade which leads cells to apoptosis. […] The active cellular caspases 3 or 7 cause the cleavage of the substrate, emitting fluorescence which is read by means of a fluorometer.
The effect of the pretreatment of the NST0005 compound at 40 and 100 μg/ml on caspase 3/7 activation caused by 50 μM of camptothecin (Campt) in the SK-N-MC cells was thus analyzed. […]
The cells were incubated (at 37° C. and 5% CO2) with these treatments for 6 h, after which time the lysis buffer and the substrate rhodamine 110 were added at the concentrations specified by the manufacturer; they were incubated at room temperature for 30 minutes and the cells were then frozen at −20° C. overnight. They were thawed the next day and the reading of the plate was taken in a fluorometer at 499 nm for excitation and 521 nm for emission.

SMILES | inhibition at 100 µM [1] | inhibition of apoptosis caused by camptothecin (flow cytometry) (SK-N-MC cells) | inhibition of caspase 3/7 activation [2]
O=C1O[C@H]([C@@H](O)CO)C(O)=C1O [AA, ascorbic acid, reference compound] | 80% | – | –
COC(=O)C[C@H](NC(=O)[C@H](C)NC(=O)[C@@H](NC(=O)OCc1ccccc1)C(C)C)C(=O)CF [Z-VAD-fmk, reference compound] (Cbz-Val-Ala-Asp(OMe)-CH2F) | – | 30% | completely inhibited
